According to patent EP2012792B1, “USE OF A COMPOUND INDUCING AN INCREASE OF FREE SEROTONIN RATE IN THE BODY, FOR PREPARING A MEDICINE FOR TREATING SKELETAL MUSCLE DEGENERATION OF GENETIC ORIGIN” (Association Française contre les Myopathies, priority 2006, dated 2007):
Structures can show the parent of a compound that is named as a salt.

Key:
[1] = test system: souche de nématode dépourvue de dystrophine; experiment: Muscle degeneration and paralysis test in dystrophin-deficient nematode strain (degenerative myopathy model); assay type: in vivo, Caenorhabditis elegans; conditions: 7 days of culture at 15°C; for Diminution de la dégénérescence en %: untreated = 0; for Pourcentage d'animaux paralysés à J7: untreated = 100
Method: Les composés ont été testés sur une souche de nématode dépourvue de dystrophine (Gieseler et al., Current Biology, 2000, vol. 10, p1092-1097) et (Ségalat, Neuromuscular Disorders, 2002, Suppl: S105-9). Cette souche est utilisée comme modèle de myopathie dégénérative. Dans cette souche, jusqu'à 30% des cellules musculaires servant à la locomotion (muscles longitudinaux) dégénèrent à l'état adulte (7 jours à 15°C), ce qui se traduit par une paralysie progressive des animaux.
Les composés sont administrés par mélange avec la gélose sur laquelle sont cultivés les animaux. Ils pénètrent par diffusion à travers la cuticule des animaux.
L'effet des composés sur la dégénérescence musculaire est évalué par 1) l'observation du phénotype des animaux (paralysie), et 2) par l'examen cytologique de la dégénérescence musculaire au moyen de marqueurs musculaires : rodamine-phalloidine et anticorps anti-myosine. Cet examen permet de compter le nombre de cellules musculaires en dégénérescence ou mortes (Gieseler et al., 2000, supra).

[2] = test system: souris mdx (génotype C57/BL6 mdx5cv); experiment: mdx mouse: diaphragm necrosis (test of Raymackers et al.); assay type: in vivo; conditions: 15 mg/kg/jour oral in food; p<5%
Method: (§1) J. Pathol. […] 2002 Aug; 444(5), 634-43. […] 2000 Sep; 11(9), 725-8.
(§2) Elles sont testées à 6 semaines.
(§3) Il a également été démontré que la Fluoxetine chlorhydrate (11 mg/kg/jour), réduit le nombre de fibres centronucléées de 20% environ (p<0,1%).

[3] = test system: souris mdx (génotype C57/BL6 mdx5cv); experiment: mdx mouse: number of centronucleated fibres (test of Shavlakadze et al.); assay type: in vivo; conditions: p<0,1%
Method: as §1, §2, §3

[4] = test system: protéolyse du muscle de C. elegans; experiment: Muscle proteolysis model of C. elegans representative of cachexia (protocol of Zdinak et al.); assay type: in vivo; conditions: relative to control; concentration not given
Excerpt: c) Concernant l'action sur la cachexie, il a également pu être montré sur un modèle de protéolyse du muscle de C. elegans representatif de la cachexie, et en utilisant le protocole décrit par Zdinak et al., dans Transgene-coded chimeric proteins as reporters of intracellular proteolysis: starvation-induced catabolism of a lacZ fusion protein in muscle cells of Caenorhabditis elegans, J Cell Biochem. 1997 Oct 1;67(1):143-53 que la sérotonine et l'imipramine chlorhydrate réduisent fortement cette protéolyse (20% de la protéolyse du témoin dans les 2 cas).

[5] = test system: souris mdx (génotype C57/BL6 mdx5cv); experiment: mdx mouse: histology, fibre size dispersion; assay type: in vivo; conditions: 40mg/jour/kg oral in food, treated from 2 to 6 weeks of age, tested at 6 weeks; versus untreated animals
Excerpt: as §1, §2

[6] = test system: souris mdx (génotype C57/BL6 mdx5cv); conditions: 40mg/jour/kg oral in food, treated from 2 to 6 weeks of age
Excerpt: Les tests effectués chez la souris sont de plusieurs types : histologiques, fonctionnels sur l'animal entier, et fonctionnels sur muscles disséqués. Les tests sont effectués sur la souris mdx (génotype C57/BL6 mdx5cv), modèle murin de myopathie dégénérative. Ces tests sont notamment détaillés dans les publications suivantes auxquelles on pourra se référer : • De Luca A, et al. Am. J. Pathol. 2005 Feb; 166(2), 477-89. • Divet A, et al. Pflugers Arch. 2002 Aug; 444(5), 634-43. Epub 2002 Jul 10. • Rafael JA, et al. Mamm Genome. 2000 Sep; 11(9), 725-8.
Les composés sont administrés oralement aux souris dans leur nourriture. Les souris sont traitées de l'âge de 2 semaines à 6 semaines. Elles sont testées à 6 semaines.

[7] = 0,1 mg/ml (0,2 mM) in culture agar
[8] = 0,1 mg/ml (0,3 mM) in culture agar
[9] = 4 mg/ml (10 mM) in culture agar
[10] = 0,05 mg/ml (0,15 mM) in culture agar

CC(CN(C)C)CN1c2ccccc2CCc2ccccc21 (stereo not shown) [Trimipramine maleate, trimipramine]
Diminution de la dégénérescence en % [1, 7]: 53%
Pourcentage d'animaux paralysés à J7 [1, 7]: 60%
nécrose du diaphragme [2]: réduit la nécrose du diaphragme
nombre de fibres centronucléées ([3]; 15 mg/kg/jour oral in food, result in words): réduit

CNCCCN1c2ccccc2CCc2ccccc21 [Desipramine chlorhydrate, désipramine]
Diminution de la dégénérescence en % [1, 8]: 58%
Pourcentage d'animaux paralysés à J7 [1, 8]: 58%

NCCc1c[nH]c2ccc(O)cc12 [Sérotonine, 5-hydrotryptamine]
Diminution de la dégénérescence en % [1, 9]: 73%
Pourcentage d'animaux paralysés à J7 [1, 9]: 41%
dégénérescence musculaire ([1]; result in words): diminue également la dégénérescence musculaire
protéolyse [4]: 20 % de la protéolyse du témoin

CN(C)CCCN1c2ccccc2CCc2ccccc21 [Imipramine chlorhydrate, imipramine]
Diminution de la dégénérescence en % [1, 8]: 37%
Pourcentage d'animaux paralysés à J7 [1, 8]: 65%
protéolyse [4]: 20 % de la protéolyse du témoin
Réduction de la dispersion de taille des fibres (marqueur de dégénérescence) [5]: 26%
Augmentation de la tension développée par le muscle EDL sur animaux vivants ([6]; tested at 6 weeks): 20%
Augmentation du score avec le test d'agrippement ([6]; tested at 6 weeks): 48%
Augmentation de la tension maximale développée par le muscle isolé ([6]; triton-skinned fibres): 50%

CNCCC(Oc1ccc(C(F)(F)F)cc1)c1ccccc1 (stereo not shown) [Fluoxetine chlorhydrate, fluoxétine]
Diminution de la dégénérescence en % [1, 10]: 51%
Pourcentage d'animaux paralysés à J7 [1, 10]: 60%
réduction du nombre de fibres centronucléées ([3]; 11 mg/kg/jour oral in food): ~20%

CN(C)CCC=C1c2ccccc2CCc2ccccc21 [Amytriptyline chlorhydrate, amitriptyline]
Diminution de la dégénérescence en % [1, 8]: 61%
Pourcentage d'animaux paralysés à J7 [1, 8]: 52%
